# Patent publication US6310090A, “Process and product for enhancing immune response in companion animals using a combination of antioxidants” (priority 2000, dated 2001)
# Legend:
# [1] = test system: chemical-induced carcinogenesis; details: mice; cited from earlier work
# lymphocyte [2] = details: rats; cited from earlier work
# mouse splenocytes = details: cited from earlier work
# [3] = uptake profile of plasma β-carotene after a single oral dose; design: species or system dog (Beagle); details: dog, in vivo
# Experimental: (§1) Female Beagle dogs (18 to 19 months of age; 7 to 9 kg body weight) were fed a basal diet (The lams Co., Lewisburg, OH) which met or exceeded the requirement for all essential nutrients. Animals were housed indoors in light- (14 hr light; 10 hr dark) and temperature-controlled rooms. A test was conducted to study the uptake profile of β-carotene after a single oral dose of β-carotene.
# To study the uptake of oral β-carotene in dogs given a single dose of β-carotene orally, dogs (n=6/treatment) were given once perorally 0, 50, 100 or 200 mg of β-carotene (10% cold water dissolvable; BASF Corp., Ludwigshafen, Germany). The appropriate dose of β-carotene was dissolved in 5 ml of water fed orally by using a feeding syringe. In order to establish appropriate sampling times, two dogs were used in a preliminary study. These dogs were fed once with 50 mg β-carotene and blood sampled at 0 (immediately prior to β-carotene feeding), 3, 6, 9, 12, 15, 18, 21 and 24 hr.
# (§2) Blood plasma was separated by centrifugation and β-carotene concentrations were analyzed using high performance liquid chromatography (HPLC) as follows. All procedures were conducted under dim light. Duplicate aliquots of plasma, each leukocyte homogenate, and each leukocyte subcellular fraction were extracted with a 1:1 mixture of diethyl ether and petroleum ether in the presence of BHT. The ether phase was removed and dried under a stream of nitrogen. The residue was reconstituted in mobile phase for the HPLC determination of β-carotene. Samples (50 μl) were injected onto a 5 μm spherical C-18 reverse-phase column (3.9×150 mm; Resolve) and eluted with a 47:47:6 (v/v/v) mixture of acetonitrile, methanol, and chloroform at a flow rate of 1.0 ml/min.
# [4] = plasma β-carotene on daily feeding for 7 consecutive days; design: species or system dog (Beagle); details: dog, in vivo
# Experimental: as §1, §2
# In a second study, the dogs (n=6/treatment) were fed daily at 0800 hr for 7 consecutive days with 0, 12.5, 25, 50 or 100 mg β-carotene. […] Plasma was isolated and analyzed for concentrations of β-carotene.
# blood lymphocytes = test system: blood lymphocytes; design: species or system dog (Beagle); details: dog, in vivo
# Experimental: as §1, §2
# (§3) A third study was designed to study the uptake of β-carotene in dogs by blood lymphocytes. The dogs (n=8/treatment) were fed 0, 50 or 100 mg of β-carotene daily for 30 days. Blood was sampled from all dogs via the jugular vein on days 10, 20 and 30. Blood lymphocytes and neutrophils were separated by density gradient centrifugation. Cell numbers were enumerated. Lymphocytes and neutrophils were resuspended in PBS containing 3% sodium ascorbate as an antioxidant. An aliquot of the cell suspension was sonicated for 30 seconds to disrupt the cells. The leukocyte homogenates were extracted for HPLC analysis of β-carotene.
# (§4) On day 30, a larger aliquot of blood was taken and leukocyte suspensions prepared as described above for subsequent subcellular fractionation. Cells were disrupted by sonication for 20 seconds in 5 volumes of 0.25 M sucrose. Sodium ascorbate was added as the antioxidant. The homogenate was centrifuged (600×g for 10 min at 4° C.) and the nuclear pellet separated from the supernatant. The postnuclear supernatant was centrifuged (17,300×g for 20 min at 4° C.) to separate the mitochondrial fraction. The postmitochondrial supernatant was centrifuged (102,000×g for 60 min at 4° C.) to separate the microsomal from the cytosolic fraction. Each subcellular fraction was analyzed for β-carotene content by HPLC.
# [5] = uptake of β-carotene by blood neutrophils and their subcellular fractions; format: in vivo, dog (Beagle); details: dog, blood neutrophils, po; 50 or 100 mg daily; read-out: time of maximal uptake by blood neutrophils
# Experimental: as §1, §2, §3, §4
# blood neutrophils = test: as above; format: in vivo, dog (Beagle); details: dog, in vivo
# Experimental: as §1, §2, §3, §4
# [6] = format: in vivo, dog (Beagle)
# Experimental: (§5) In a fourth study, female Beagles (4 to 5 mo old) were supplemented daily with 0, 25, 50 or 100 mg of β-carotene to study the role of dietary β-carotene in enhancing the cell-mediated and humoral immune systems of the dog. The following parameters were assessed in all the animals or in the peripheral blood lymphocytes: (1) delayed-type hypersensitivity (DTH) against PHA (nonspecific immunity) and vaccine (specific immunity), (2) lymphocyte proliferation, (3) lymphocyte populations and (4) immunoglobulins (Ig).
# [7] = test system: PHA (nonspecific immunity); test: delayed-type hypersensitivity (DTH) against PHA, β-carotene feeding; format: in vivo, dog (Beagle); details: 50 mg of β-carotene
# Experimental: as §5
# [8] = test system: vaccine (specific immunity); test: delayed-type hypersensitivity (DTH) against vaccine, β-carotene feeding; format: in vivo, dog (Beagle); details: 20 or 50 mg of β-carotene
# Experimental: (§6) The following parameters were assessed in all the animals or in the peripheral blood lymphocytes: (1) delayed-type hypersensitivity (DTH) against PHA (nonspecific immunity) and vaccine (specific immunity), (2) lymphocyte proliferation, (3) lymphocyte populations and (4) immunoglobulins (Ig).
# CD4+ cells = test: lymphocyte populations, β-carotene feeding; format: in vivo, dog (Beagle); details: 20 or 50 mg, week 8, compared to controls
# Experimental: as §6
# CD8 cells = test: lymphocyte populations, β-carotene feeding; format: in vivo, dog (Beagle); details: 20 mg, weeks 2 and 4
# Experimental: as §6
# IgG = test: immunoglobulins, β-carotene feeding; format: in vivo, dog (Beagle); details: as early as 1 week after supplementation
# Experimental: as §5
# IgM = test: immunoglobulins, β-carotene feeding; format: in vivo, dog (Beagle); details: as early as 1 week after supplementation
# Experimental: as §5
# immunoglobulins (Ig) = test: immunoglobulins / antibody levels in the blood, β-carotene feeding; format: in vivo, dog (Beagle)
# Experimental: FIG. 1 is a graph of antibody concentration in dogs (mg/dl) versus mg/kg diet of beta-carotene; and
# as §6
# lymphocyte [9] = test: mitogen-induced lymphocyte blastogenesis, β-carotene feeding; format: cell-based, dog (Beagle)
# Experimental: as §5
# IL-2 = IL-2 production, β-carotene feeding; format: cell-based, dog (Beagle)
# immune system = test: summary of the results from each of the studies (Table 1); format: in vivo, dog
# cancer = details: supplementation alone, compared with diets high in antioxidants; cited from earlier work
# lymphocyte [10] = test: lymphocyte mitogenic response to ConA and PHA, vitamin E diets; format: cell-based, dog (Beagle); details: 8 weeks
# Description: Twenty young (mean age 2 years) and 20 old (mean age 9.2 years) Beagles were fed a standard commercial chicken/corn-based diet formulated to contain 27 IU/kg diet of vitamin E (NRC recommendation) (control diet) for 1 month prior to the commencement of the experiment in order to stabilize the dogs' vitamin E levels. Young and old dogs were then randomly assigned to the diets containing 27 IU/kg diet of vitamin E or 280 IU/kg diet of vitamin E for 8 weeks. Blood was collected before and after 8 weeks of dietary treatments for measurement of plasma vitamin E levels and assessment of lymphocyte mitogenic response to ConA (concanavalin A) and PHA (phytohemagglutinin).
# [11] = daily β-carotene supplementation
compound,measurement,setting,value
CC1=C(/C=C/C(C)=C/C=C/C(C)=C/C=C/C=C(C)/C=C/C=C(C)/C=C/C2=C(C)C(=O)CCC2(C)C)C(C)(C)CCC1=O [canthaxanthin],chemical-induced carcinogenesis,[1],prevent chemical-induced carcinogenesis in mice
same,lymphocyte proliferation,lymphocyte [2],increase lymphocyte proliferation in rats
"CC1=C(/C=C/C(C)=C/C=C/C(C)=C/C=C/C=C(C)/C=C/C=C(C)/C=C/C2=C(C)C(=O)[C@@H](O)CC2(C)C)C(C)(C)C[C@H](O)C1=O [Astaxanthin, astaxanthin]",ex vivo antibody response of mouse splenocytes to T-dependent antigens,mouse splenocytes,increase ex vivo antibody response
CC1=C(/C=C/C(C)=C/C=C/C(C)=C/C=C/C=C(C)/C=C/C=C(C)/C=C/C2=C(C)CCCC2(C)C)C(C)(C)CCC1 [β-carotene],"concentration of β-carotene in plasma of dogs, lower than in cats",[3],10-16 fold
same,"peak concentrations of blood β-carotene, dogs versus cats",[3]; po,occurred earlier in dogs than in cats
same,Tmax,"[3]; po, preliminary study, two dogs, 50 mg once orally, plasma, read-out: time of peak concentrations of β-carotene",3 to 6 h
same,"plasma β-carotene after the last dose, higher than after the first dose",[4],2.5-4 fold
same,"share of total β-carotene in lymphocytes, cytosol",blood lymphocytes,52-62%
same,"share of total β-carotene in lymphocytes, microsomes",blood lymphocytes,16-23%
same,"share of total β-carotene in lymphocytes, mitochondria",blood lymphocytes,14-17%
same,"share of total β-carotene in lymphocytes, nuclei",blood lymphocytes,6-8%
same,"β-carotene concentrations in lymphocytes, 50 versus 100 mg",blood lymphocytes,no significant treatment difference
same,Tmax,[5],≤ 240 h
same,dose effect on uptake by blood neutrophils,blood neutrophils,No significant dose effect was observed
same,β-carotene in the cytosolic fraction of blood neutrophils,blood neutrophils,61-68
same,β-carotene in the nuclei of blood neutrophils,blood neutrophils,not detected
same,plasma retinol,[6]; [11],did not influence
same,plasma α-tocopherol,[6]; [11],did not influence
same,plasma β-carotene concentrations,"[6]; dog, in vivo",increased plasma β-carotene concentrations in a dose-dependent manner
same,DTH response to PHA challenge,[7],greatest response
same,DTH response to the vaccine,[8],significantly higher DTH response
same,population of CD4+ cells,CD4+ cells,elevated population of CD4+ cells
same,population of CD8 cells,CD8 cells,elevated population of CD8 cells
same,concentration of IgG,IgG,increased significantly
same,concentration of total IgG,IgG; total IgG,increased significantly
same,concentration of IgM,IgM,increased significantly
same,increases in Ig,immunoglobulins (Ig); 0 to 20 mg of β-carotene,dose dependent
same,antibody response for both Ig,immunoglobulins (Ig); 20 mg of β-carotene,consistently had the greatest antibody response
same,increase in antibody levels in the blood,"immunoglobulins (Ig); FIG. 1, addition of β-carotene to the diet",20%
same,increases in Ig,"immunoglobulins (Ig); highest level, 50 mg",did not produce a further increase
same,mitogen-induced lymphocyte blastogenesis,lymphocyte [9],did not influence
same,IL-2 production,IL-2,did not influence
same,Increase antibody levels in the blood,immune system; Table 1,.check mark.
same,Optimize types of cells present in the blood,immune system; Table 1,.check mark.
same,Optimize vaccine recognition by the dog,immune system; Table 1,.check mark.
same,ex vivo antibody response of mouse splenocytes to T-dependent antigens,mouse splenocytes,increase ex vivo antibody response
same,magnitude of protection,cancer,do not provide the same magnitude of protection
vitamin E,ConA and PHA-stimulated proliferation,lymphocyte [10]; dogs supplemented with 280 IU/kg diet,No such decrease was observed
same,mitogen-stimulated lymphocyte proliferation,"lymphocyte [10]; old dogs, 27 or 280 IU/kg diet",did not show a significant change
same,ConA and PHA-stimulated proliferation,"lymphocyte [10]; young dogs, 27 IU/kg diet",significant decrease
same,Optimize immune cell activity (T-cells),"immune system; Table 1, Vitamin E column",.check mark.
same,magnitude of protection,cancer,do not provide the same magnitude of protection
